Laboratory results reported in patent US6821970B2, “Oxazinocarbazoles for the treatment of CNS diseases” (Pharmacia & Upjohn Company, priority 1999, dated 2004).
Structures can show the parent of a compound that is named as a salt.

Key:
[1] = target: T1, cloned human 5-HT6 receptor (Homo sapiens, UniProt P50406); assay: 5-HT6 receptor binding assay ([3H]-LSD radioligand, SPA beads); conditions: membranes of Hela cells containing cloned human 5-HT6 receptor, IC50 converted by Cheng-Prusoff
T1 construct: host or cells: HeLa cells (G-418 selected); membrane preparation
T1 sequence (P50406 whole entry): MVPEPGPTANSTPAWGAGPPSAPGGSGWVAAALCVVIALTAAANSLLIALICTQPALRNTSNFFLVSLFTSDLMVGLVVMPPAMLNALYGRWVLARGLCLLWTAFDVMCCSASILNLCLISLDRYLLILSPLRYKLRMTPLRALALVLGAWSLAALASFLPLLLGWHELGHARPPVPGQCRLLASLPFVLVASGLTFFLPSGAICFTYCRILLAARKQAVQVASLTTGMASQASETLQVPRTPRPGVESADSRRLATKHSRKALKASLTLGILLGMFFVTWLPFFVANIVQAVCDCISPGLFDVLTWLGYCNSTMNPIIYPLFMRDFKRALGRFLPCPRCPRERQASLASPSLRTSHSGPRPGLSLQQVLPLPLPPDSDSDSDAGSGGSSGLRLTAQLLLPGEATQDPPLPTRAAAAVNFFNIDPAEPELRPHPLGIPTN
Procedure: 5-HT6 Receport Binding Assay
Growth of Cells and Membrane Preparation
Hela cells containing the cloned human 5-HT6 receptor were acquired from Dr. David R. Sibley's laboratory in National Institute of Health (see Sibley, D. R., J. Neurochemistry, 66, 47-56, 1996). Cells were grown in high glucose Dulbecco's modified Eagle's medium, supplemented with L-glutamine, 0.5% sodium pyruvate, 0.3% penicillin-streptomycin, 0.025% G-418 and 5% Gibco fetal bovine serum and then were harvested, when confluent, in cold phosphate buffered saline.
Harvested intact cells were washed once in cold phosphate-buffered saline. The cells were pelleted and resuspended in 100 ml of cold 50 mM Tris, 5 mM EDTA and 5 mM EGTA, pH 7.4. Homogenization was with a Vir Tishear generator, 4 cycles for 30 seconds each at setting 50. The homogenized cells were centrifuged at […] for 10 minutes and the supernatant was removed. The pellet was resuspended in 100 ml of the above buffer and rehomogenized for 2 cycles. The rehomogenized cells were then centrifuged at […] for 10 minutes and the supernatant was removed. The combined supernatant (200 ml) was centrifuged at 23,000 RPM (80,000×g) for 1 hour in a Beckman Rotor (42.1 Ti). The membrane pellet was resupended in 50-8-ml of assay buffer containing HEPES 20 mM, MgCl2 10 mM, NaCl 150 mM, EDTA 1 mM, pH 7.4 and stored frozen in aliqouts at −70° C.
5-HT6 Receptor Binding Assay
The radioligand binding assay used [^3H]-lysergic acid diethylamide (LSD). The assay was carried out in Wallac 96-well sample plates by the addition of 11 μl of the test sample at the appropriate dilution (the assay employed 11 serial concentrations of samples run in duplicate), 11 μl of radioligand, and 178 μl of a washed mixture of WGA-coated SPA beads and membranes in binding buffer. The plates were shaken for about 5 minutes and then incubated at room temperature for 1 hour. The plates were then loaded into counting cassettes and counted in a Wallac MicroBeta Trilux scintillation counter.
Binding Constant (Ki) Determination
Eleven serial dilutions of test compounds were distributed to assay plates using the PE/Cetus Pro/Pette pipetter. These dilutions were, followed by radioligand and the bead-membrane mixture prepared as described above. The specifically bound cpm obtained were fit to a one-site binding model using GraphPad Prism ver. 2.0. Estimated IC50 values were converted to Ki values using the Cheng-Prusoff equation (Cheng, Y. C. et al., Biochem. Pharmacol., 22, 3099-108, 1973).

Compound	melting point [°C]	Ki [1] [nM]
NCCOc1cccc2c1c1cccc3c1n2[C@@H](c1ccccc1)CO3 [Example 1, (S)-(+)-[(1-Phenyl-1,2-dihydro[1,4]oxazino[2,3,4-jk]carbazol-7-yl)oxy]ethanamine]		76
NCCOc1cccc2c1c1cccc3c1n2C(c1ccccc1)CO3 (centres unmarked) [Example 4, [(1-Phenyl-1,2-dihydro[1,4]oxazino[2,3,4-jk]carbazol-7-yl)oxy]ethanamine]		1.7
CCNCCOc1cccc2c1c1cccc3c1n2C(c1ccccc1)CO3.O=C(O)/C=C\C(=O)O (centres unmarked) [Example 6, N-Ethyl-2-[(1-phenyl-1,2-dihydro[1,4]oxazino[2,3,4-jk]carbazol-7-yl)oxy]-1-ethanamine]	105	2.7
NCCOc1c(Cl)ccc2c1c1cccc3c1n2C(c1ccccc1)CO3 (centres unmarked) [Example 9, 2-[(8-Chloro-1-phenyl-1,2-dihydro[1,4]oxazino[2,3,4-jk]carbazol-7-yl)oxy]-1-ethanamine]		5.8
CCNCCOc1cccc2c1c1cc(C)cc3c1n2C(c1ccccc1)CO3 (centres unmarked) [Example 11, N-Ethyl-2-[(5-methyl-1-phenyl-1,2-dihydro[1,4]oxazino[2,3,4-jk]carbazol-7-yl)oxy]-1-ethanamine]		5.3
CC(C)(C)OC(=O)N1CCN(CCOc2cccc3c2c2cccc4c2n3C(c2ccccc2)CO4)CC1 (centres unmarked) [Example 12, tert-Butyl 4-{2-[(1-phenyl-1,2-dihydro[1,4]oxazino[2,3,4-jk]carbazol-7-yl)oxy]ethyl}-1-piperazinecarboxylate]	72	35
c1ccc(C2COc3cccc4c5c(OCCN6CCNCC6)cccc5n2c34)cc1 (centres unmarked) [Example 13, 1-Phenyl-1,2-dihydro[1,4]oxazino[2,3,4-jk]carbazol-7-yl 2-(1-piperazinyl)ethyl Ether]	72	57
CN1CCN(CCOc2cccc3c2c2cccc4c2n3C(c2ccccc2)CO4)CC1 (centres unmarked) [Example 14, 2-(4-Methyl-1-piperazinyl)ethyl 1-phenyl-1,2-ihydro[1,4]oxazino [2,3,4-jk]carbazol-7-yl Ether]	57	6.9
c1ccc(C2COc3cccc4c5c(OCCN6CCCCC6)cccc5n2c34)cc1 (centres unmarked) [Example 16, 1-Phenyl-1,2-dihydro[1,4]oxazino[2,3,4-jk]carbazol-7-yl 2-(1-piperidinyl)ethyl Ether]		5
Cc1cc2c3c(c1)c1c(OCCN)cccc1n3C(c1ccccc1)CO2 (centres unmarked) [Example 19, 2-[(5-Methyl-1-phenyl-1,2-dihydro[1,4]oxazino[2,3,4-jk]carbazol-7-yl)oxy]-1-ethanamine]		8
CCN(CC)CCCCOc1cccc2c1c1cccc3c1n2C(c1ccccc1)CO3 (centres unmarked) [Example 20, N,N-Diethyl-N-{4-[(1-phenyl-1,2-dihydro[1,4]oxazino[2,3,4-jk]carbazol-7-yl)oxy]butyl}amine]		28
CCN(CC)CCCOc1cccc2c1c1cccc3c1n2C(c1ccccc1)CO3 (centres unmarked) [Example 21, N,N-Diethyl-N-{3-[(1-phenyl-1,2-dihydro[1,4]oxazino[2,3,4-jk]carbazol-7-yl)oxy]propyl}amine]		19

Now from value to compound:

melting point [°C]	Ki [1] [nM]	Compound
105 to 107		CCN(CC)CCOc1cccc2c1c1cccc3c1n2C(c1ccccc1)CO3 (centres unmarked) (as salt: maleic acid salt) [Example 3, N,N-Diethyl-2-[(1-phenyl-1,2-dihydro[1,4]oxazino[2,3,4-jk]carbazol-7-yl)oxy]-1-ethanamine]
236		CS(=O)(=O)O.NCCOc1cccc2c1c1cccc3c1n2[C@H](c1ccccc1)CO3 [Example 2, (R)-(−)-[(1-Phenyl-1,2-dihydro[1,4]oxazino[2,3,4-jk]carbazol-7-yl)oxy]ethanamine]
	7.6	CCN(CC)CCOc1cccc2c1c1cccc3c1n2C(c1ccccc1)CO3 (centres unmarked) [Example 3, N,N-Diethyl-2-[(1-phenyl-1,2-dihydro[1,4]oxazino[2,3,4-jk]carbazol-7-yl)oxy]-1-ethanamine]
	39	O=CNCCOc1cccc2c1c1cccc3c1n2C(c1ccccc1)CO3 (centres unmarked) [Example 7, 2-[(1-Phenyl-1,2-dihydro[1,4]oxazino[2,3,4-jk]carbazol-7-yl)oxy]ethylformamide]
	2	CNCCOc1cccc2c1c1cccc3c1n2C(c1ccccc1)CO3 (centres unmarked) [Example 8, N-Methyl-2-[(1-phenyl-1,2-dihydro[1,4]oxazino[2,3,4-jk]carbazol-7-yl)oxy]-1-ethanamine]
	97	c1ccc(C2COc3cccc4c5c(OCCN6CCOCC6)cccc5n2c34)cc1 (centres unmarked) [Example 15, 2-(4-Morpholinyl)ethyl 1-phenyl-1,2-dihydro[1,4]oxazino[2,3,4-jk]carbazol-7-yl Ether]
	1.1	OCCNCCOc1cccc2c1c1cccc3c1n2C(c1ccccc1)CO3 (centres unmarked) [Example 17, 2-({2-[(1-Phenyl-1,2-dihydro[1,4]oxazino[2,3,4-jk]carbazol-7-yl)oxy]ethyl}amino)-1-ethanol]
117 to 118	3.3	CN(C)CCOc1cccc2c1c1cccc3c1n2C(c1ccccc1)CO3 (centres unmarked) [Example 18, N,N-dimethyl-2-[(1-phenyl-1,2-dihydro[1,4]oxazino[2,3,4-jk]carbazol-7-yl)oxy]-1-ethanamine]
	3	OCCNCCOc1cccc2c1c1cccc3c1n2[C@H](c1ccccc1)CO3 [Example 22, [(2-{[(1R)-1-Phenyl-1,2-dihydro[1,4]oxazino[2,3,4-jk]carbazol-7-yl]oxy}ethyl)amino]ethanol]
